Measurements as given in patent US10961278B2, “Vancomycin derivative, preparation method, pharmaceutical composition and use thereof” (SHANGHAI INSTITUTE OF MATERIA MEDICA, CHINESE ACADEMY OF …, priority 2016, dated 2021).
In brackets after ≈: the same amount, converted by molar mass. Entries after “also recorded” stand apart in the source; their conditions may differ. Where two headings read alike, the source gives them in different places.

Experiments:
[1] = tested on: vancomycin-middle resistant Staphylococcus aureus Mu50 strain; experiment: In vitro antibacterial activity assay (MIC, CLSI dilution method); type: cell-based
[2] = tested on: vancomycin-sensitive Staphylococcus aureus Newman strain; experiment: as above; type: cell-based; details: Staphylococcus aureus, S. aureus Newman, 37° C., 16 h
[3] = tested on: Staphylococcus aureus USA300 LAC strain (CA-MRSA); type: in vivo; details: for in vivo antibacterial activity against methicillin-resistant Staphylococcus aureus, comparison with positive controls: BALB/c mice, 7 mg/kg i.p., 10 days
[4] = In vivo pharmacokinetic assay in mice; details: for CL_obs / VSS_obs / AUCINF_obs / AUClast / MRTINF_obs / T1/2: male CD-1 mice, intravenous single dose 5 mg/kg; for AUC(0-inf) / AUC(0-t) / MRT inf / half-life: male, CD-1, mouse, in vivo, iv, 5 mg/kg
[5] = male, CD-1, mouse, in vivo, iv, 5 mg/kg
[6] = tested on: HK-2 cells (human renal proximal tubular epithelial cells); experiment: Kidney cytotoxicity assay (CCK8 cell viability); type: cell-based; details: HK-2 cells, 10, 50, 100 μM, 72 h
Experimental: (§1) Liver and kidney cell viability assays were performed using the Cell Activity Assay Kit CCK8 (Cell Counting Kit-8) method. HK-2 cells (human renal proximal tubular epithelial cells) and HL-7702 cells (human liver cells) in logarithmic growth phase were inoculated to a 96-well culture plate at a suitable density (about 5000 cells), at 100 μL per well. […] Three replicate wells were set for each concentration, and the physiological saline vehicle control well corresponding to each concentration and a well for cell-free zero-adjustment were set. After the treatment, 10 μL of CCK8 detection solution was added into each well, the incubation was performed at 37° C. for about 1.5 h. The optical density (OD value) at 450 nm was measured on a […] microplate reader. The OD value was converted to cell viability value according to the following equation: […] wherein, ODC represents the optical density obtained by different concentrations of the compounds to be tested, C represents the concentration of the compound, and ODC=0 represents the optical density obtained without addition of the compound to be tested.

[7] = tested on: HL-7702 cells (human liver cells); experiment: Liver cytotoxicity assay (CCK8 cell viability); type: cell-based; details: HL-7702 cells, 10, 50, 100 μM, 72 h
Experimental: as §1

in vivo = details: male, CD-1, mouse, iv, 5 mg/kg
[8] = Staphylococcus aureus, 16 h, read-out: MIC Mu50
[9] = female BALB/c mice, USA300 LAC retro-orbital, single dose 7 mg/kg intraperitoneally 1 h after infection, after 10 days
[10] = Staphylococcus aureus; S. aureus Mu50, 37° C., 16 h; read-out: MIC Mu50

Which MIC [1, 8] does the source give for `CN[C@H](CC(C)C)C(=O)N[C@H]1C(=O)N[C@@H](CC(N)=O)C(=O)N[C@H]2C(=O)N[C@@H]3C(=O)N[C@H](C(=O)N[C@H](C(=O)O)c4cc(O)c(CNC5C(O)OC(CO)[C@H](O)[C@@H]5O)c(O)c4-c4cc3ccc4O)[C@H](O)c3ccc(c(Cl)c3)Oc3cc2cc(c3O[C@@H]2O[C@H](CO)C(O)C(O)[C@H]2O[C@H]2CC(C)(NCc3ccc(-c4ccc(Cl)cc4)cc3)[C@H](O)[C@H](C)O2)Oc2ccc(cc2Cl)[C@H]1O` (some centres unmarked) [Van038] here?
Its MIC is 0.125 µg/mL (≈ 0.0679 µM).

What about the MIC [2] of the same compound?
The MIC was at most 0.0625 µg/mL.

And the “in vivo antibacterial activity against methicillin-resistant Staphylococcus aureus, comparison with positive controls” value (“in vivo antibacterial activity” for short) ([3]; 7 mg/kg)?
Its value is “better activity than vancomycin; also recorded: comparable activities with telavancin”.

And the survival rate [3, 9]?
Its survival rate is 93.3%.

And the CL_obs [4]?
Its CL_obs is 7.0 ± 1.38 mL/min/kg.

And the VSS_obs [4]?
The VSS_obs was 1.754 ± 0.38 L/kg.

And the AUC(0-inf) [4]?
Its AUC(0-inf) is 12200 ± 2490 ng·h/mL.

And the AUC(0-t) [4]?
Its AUC(0-t) is 12100 ± 2480 ng·h/mL.

And the MRT inf [4]?
Its MRT inf is 4.18 ± 0.34 h.

What about the half-life [4] of the same compound?
Its half-life is 3.81 ± 0.31 h.

With `CN[C@H](CC(C)C)C(=O)N[C@H]1C(=O)N[C@@H](CC(N)=O)C(=O)N[C@H]2C(=O)N[C@H]3C(=O)N[C@H](C(=O)N[C@H](C(=O)O)c4cc(O)cc(O)c4-c4cc3ccc4O)[C@H](O)c3ccc(c(Cl)c3)Oc3cc2cc(c3O[C@@H]2O[C@H](CO)[C@@H](O)[C@H](O)[C@H]2O[C@H]2C[C@](C)(N)[C@H](O)[C@H](C)O2)Oc2ccc(cc2Cl)[C@H]1O` [Vanco., vancomycin] as the compound, how does the MIC [1, 10] read?
The MIC was 8 µg/mL (≈ 5.52 µM).

And the MIC [2]?
The MIC was 2 µg/mL (≈ 1.38 µM).

And the VSS_obs [5]?
Its VSS_obs is 3.076 ± 0.175 L/kg.

What about the survival rate ([3]; in vivo, ip, 7 mg/kg) of the same compound?
Its survival rate is 6.6%.

And the AUCINF_obs [4]?
The AUCINF_obs was 1271 ± 347 ng·h/mL.

What about the AUClast [4] of the same compound?
The AUClast was 1242 ± 335 ng·h/mL.

And the CL_obs [4]?
Its CL_obs is 68.7 ± 18 mL/min/kg.

And the MRTINF_obs [4]?
Its MRTINF_obs is 0.790 ± 0.26 h.

And the T1/2 [4]?
The T1/2 was 0.597 ± 0.208 h.

With `CN[C@H](CC(C)C)C(=O)N[C@H]1C(=O)N[C@@H](CC(N)=O)C(=O)N[C@H]2C(=O)N[C@H]3C(=O)N[C@H](C(=O)N[C@H](C(=O)O)c4cc(O)c(CNCCO[C@@H]5OC(CO)[C@H](O)C(O)C5O)c(O)c4-c4cc3ccc4O)[C@H](O)c3ccc(c(Cl)c3)Oc3cc2cc(c3OC2O[C@H](CO)C(O)C(O)[C@H]2O[C@@H]2CC(C)[C@@H](O)C(C)(NCc3ccc(-c4ccc(C(F)(F)F)cc4)cc3)C2)Oc2ccc(cc2Cl)[C@H]1O` (some centres unmarked) [Van037] as the compound, how does the MIC [1, 8] read?
The MIC was 0.25 µg/mL (≈ 0.13 µM).

And the “toxicity in kidney cells” value [6]?
The value was “toxicity less than vancomycin and comparable to telavancin”.

And the “toxicity in liver cells” value [7]?
Its value is “less toxicity in liver cells than vancomycin and telavancin”.

And the MIC [2]?
Its MIC is at most 0.0625 µg/mL.

And the “in vivo antibacterial activity” value ([3]; 7 mg/kg)?
Its value is “better activity than vancomycin; also recorded: comparable activities with telavancin”.

What about the survival rate [3, 9] of the same compound?
The survival rate was 86.6%.

What about the CL_obs [4] of the same compound?
Its CL_obs is 4.42 ± 1.42 mL/min/kg.

And the VSS_obs [4]?
Its VSS_obs is 1.077 ± 0.449 L/kg.

What about the AUC(0-inf) [4] of the same compound?
The AUC(0-inf) was 20000 ± 5490 ng·h/mL.

What about the AUC(0-t) [4] of the same compound?
The AUC(0-t) was 16600 ± 4960 ng·h/mL.

And the MRT inf [4]?
The MRT inf was 4.21 ± 2.08 h.

What about the half-life [4] of the same compound?
Its half-life is 2.94 ± 1.39 h.

With `CCCCCCCCCCNCCN[C@@]1(C)C[C@H](O[C@H]2[C@H](Oc3c4cc5cc3Oc3ccc(cc3Cl)[C@@H](O)[C@@H](NC(=O)[C@@H](CC(C)C)NC)C(=O)N[C@@H](CC(N)=O)C(=O)N[C@H]5C(=O)N[C@H]3C(=O)N[C@H](C(=O)N[C@H](C(=O)O)c5cc(O)c(CNCP(=O)(O)O)c(O)c5-c5cc3ccc5O)[C@H](O)c3ccc(c(Cl)c3)O4)O[C@H](CO)[C@@H](O)[C@@H]2O)O[C@@H](C)[C@H]1O` [Tela., telavancin, reference compound] as the compound, how does the MIC [1, 10] read?
The MIC was 1 µg/mL (≈ 0.57 µM).

What about the MIC [2] of the same compound?
The MIC was under 0.0625 µg/mL.

And the survival rate ([3]; in vivo, ip, 7 mg/kg)?
The survival rate was 93.3%.

What about the AUCINF_obs [4] of the same compound?
The AUCINF_obs was 17304 ± 5745 ng·h/mL.

And the AUClast [4]?
The AUClast was 17143 ± 5611 ng·h/mL.

What about the CL_obs [4] of the same compound?
The CL_obs was 5.1 ± 1.5 mL/min/kg.

And the MRTINF_obs [4]?
Its MRTINF_obs is 1.71 ± 0.13 h.

What about the T1/2 [4] of the same compound?
The T1/2 was 1.13 ± 0.13 h.

For `CN[C@H](CC(C)C)C(=O)N[C@H]1C(=O)N[C@@H](CC(N)=O)C(=O)N[C@H]2C(=O)N[C@H]3C(=O)N[C@H](C(=O)N[C@H](C(=O)O)c4cc(O)c(CNCCCNC(=O)[C@H](O)[C@@H](O)[C@H](O)[C@H](O)CO)c(O)c4-c4cc3ccc4O)[C@H](O)c3ccc(c(Cl)c3)Oc3cc2cc(c3OC2O[C@H](CO)C(O)C(O)[C@H]2O[C@@H]2CC(C)[C@@H](O)C(C)(NCc3ccc(-c4ccc(C(F)(F)F)cc4)cc3)C2)Oc2ccc(cc2Cl)[C@H]1O` (some centres unmarked) [Van016], which MIC ([1]; Staphylococcus aureus, 16 h, S. aureus Mu50, 37° C., read-out: MIC Mu50) is on record?
The MIC was 0.25 µg/mL (≈ 0.128 µM).

What about the MIC ([2]; NEWMAN) of the same compound?
Its MIC is at most 0.0625 µg/mL.

And the CL_obs [5]?
Its CL_obs is 6.4 ± 1.39 mL/min/kg.

What about the VSS_obs [5] of the same compound?
Its VSS_obs is 1.826 ± 0.334 L/kg.

What about the “in vivo antibacterial activity” value [3] of the same compound?
Its value is “better activity than vancomycin”.

And the survival rate [3, 9]?
Its survival rate is 60.0%.

And the AUC(0-inf) (in vivo)?
Its AUC(0-inf) is 13400 ± 12700 ng·h/mL.

And the AUC(0-t) (in vivo)?
The AUC(0-t) was 10700 ± 2060 ng·h/mL.

And the MRT inf (in vivo)?
The MRT inf was 4.79 ± 0.24 h.

What about the half-life (in vivo) of the same compound?
The half-life was 3.72 ± 0.7 h.

For `CN[C@H](CC(C)C)C(=O)N[C@H]1C(=O)N[C@@H](CC(N)=O)C(=O)N[C@H]2C(=O)N[C@@H]3C(=O)N[C@H](C(=O)N[C@H](C(=O)O)c4cc(O)c(CNC5C(O)OC(CO)[C@H](O)[C@@H]5O)c(O)c4-c4cc3ccc4O)[C@H](O)c3ccc(c(Cl)c3)Oc3cc2cc(c3O[C@@H]2O[C@H](CO)C(O)C(O)[C@H]2O[C@H]2CC(C)(NCc3ccc(-c4ccc(C(F)(F)F)cc4)cc3)[C@H](O)[C@H](C)O2)Oc2ccc(cc2Cl)[C@H]1O` (some centres unmarked) [Van032], which MIC [1, 8] is on record?
Its MIC is at most 0.0625 µg/mL.

And the MIC [2]?
The MIC was at most 0.0625 µg/mL.

And the “in vivo antibacterial activity” value [3]?
Its value is “better activity than vancomycin”.

And the survival rate [3, 9]?
Its survival rate is 73.3%.

And the CL_obs [4]?
Its CL_obs is 3.45 ± 0.40 mL/min/kg.

What about the VSS_obs [4] of the same compound?
Its VSS_obs is 0.9 ± 0.18 L/kg.

And the AUC(0-inf) [4]?
Its AUC(0-inf) is 24300 ± 2800 ng·h/mL.

What about the AUC(0-t) [4] of the same compound?
Its AUC(0-t) is 20100 ± 1710 ng·h/mL.

And the MRT inf [4]?
The MRT inf was 4.41 ± 1.23 h.

What about the half-life [4] of the same compound?
The half-life was 3.45 ± 1.26 h.
